PubChem BioAssay (NCI)
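Tested at 5 concentrations; 48 h exposure; 96-well plates; endpoints linearly interpolated, else capped at highest concentration. Definition used: TGI = concentration required for complete inhibition of growth.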

Legend:
Experiment in all cases: DTP human tumour cell line panel, 48 h
SK-MEL-2 melanoma = system: SK-MEL-2 melanoma
NCI-H226 lung = system: NCI-H226 lung
NCI-H23 lung = system: NCI-H23 lung
K-562 leukemia = system: K-562 leukemia
CCRF-CEM leukemia = system: CCRF-CEM leukemia
SN12C renal = system: SN12C renal
SNB-75 CNS = system: SNB-75 CNS
LOX IMVI melanoma = system: LOX IMVI melanoma
KM12 colon = system: KM12 colon
SF-268 CNS = system: SF-268 CNS
MALME-3M melanoma = system: MALME-3M melanoma
SW-620 colon = system: SW-620 colon
NCI-H460 lung = system: NCI-H460 lung
HL-60(TB) leukemia = system: HL-60(TB) leukemia
IGROV1 ovarian = system: IGROV1 ovarian
PC-3 prostate = system: PC-3 prostate
SR leukemia = system: SR leukemia
HOP-92 NSCLC = system: HOP-92 NSCLC
COLO 205 colon = system: COLO 205 colon
T-47D breast = system: T-47D breast

| SMILES | TGI (SK-MEL-2 melanoma) [µM] | TGI (NCI-H226 lung) [µM] | TGI (NCI-H23 lung) [µM] | TGI (K-562 leukemia) [µM] | TGI (CCRF-CEM leukemia) [µM] | TGI (SN12C renal) [µM] | TGI (SNB-75 CNS) [µM] | TGI (LOX IMVI melanoma) [µM] | TGI (KM12 colon) [µM] | TGI (SF-268 CNS) [µM] | TGI (MALME-3M melanoma) [µM] | TGI (SW-620 colon) [µM] | TGI (NCI-H460 lung) [µM] | TGI (HL-60(TB) leukemia) [µM] | TGI (IGROV1 ovarian) [µM] | TGI (PC-3 prostate) [µM] | TGI (SR leukemia) [µM] | TGI (HOP-92 NSCLC) [µM] | TGI (COLO 205 colon) [µM] | TGI (T-47D breast) [µM] |
| --- | --- | --- | --- | --- | --- | --- | --- | --- | --- | --- | --- | --- | --- | --- | --- | --- | --- | --- | --- | --- |
| CC(Oc1ccc(OCC2CCCCC2)cc1)C(N)=O (stereo unspecified) | > 100 | > 100 | > 100 | > 100 | > 100 | > 100 | > 100 | > 100 | > 100 | > 100 | > 100 | > 100 | > 100 | > 100 |  |  |  |  |  |  |
| O=c1[nH]c(=O)n(C2OC(CO)C(O)C2O)c2ccsc12 (stereo unspecified) | > 100 | > 100 | > 100 | > 100 | > 100 | > 100 | > 100 | > 100 | > 100 | > 100 | > 100 | > 100 | > 100 | > 100 | > 100 | > 100 | > 100 | > 100 | > 100 |  |
| CCCc1c[nH]c(-c2ccc(-c3cc(CCC)c(C=O)[nH]3)s2)c1 | 28.5 | 33.3 | 42.4 | 49.8 | 91.4 | 30.2 | 34.8 | 27.7 | 28.5 | 34.6 | 30 | 33.7 | 16.9 | 49.8 | 45.5 |  |  |  |  |  |
| CCOC(=O)C1=C(C)OC(=O)[C@@]2(OC)C=C(Cl)[C@@]12C |  | > 100 | > 100 | > 100 | > 100 | > 100 | > 100 | > 100 | > 100 | > 100 | > 100 | > 100 | > 100 | 91 | > 100 | > 100 | > 100 | > 100 | > 100 |  |
| O=C1C(C(c2ccccc2)N2CCOCC2)=C(O)C(c2ccccc2)N1c1ccccc1 (stereo unspecified) | > 10 | > 10 | > 10 | > 10 | > 10 | > 10 | > 10 | > 10 | > 10 | > 10 | > 10 | > 10 | > 10 | > 10 | > 10 | > 10 |  |  | > 10 | > 10 |
| NCCCCN(CCCN)C(=O)c1ccccc1 | > 100 | > 100 | > 100 | > 100 | > 100 | > 100 | > 100 |  | > 100 | > 100 |  | > 100 | > 100 | > 100 | > 100 | > 100 |  | > 100 | > 100 | > 100 |
| CC(=O)OC(C)c1cc2c(s1)C(=O)c1scc(C(C)OC(C)=O)c1C2=O (stereo unspecified) |  | 4.04 | 0.398 | > 100 |  |  | 0.332 | > 100 | 0.359 | 0.504 | 0.288 |  | 0.344 | > 100 | 2.04 |  |  | 4.58 | 1 | 2.1 |
| CCCCCCCCCCCCCCCC(=O)OCC1CCCN2CCCCC12 (stereo unspecified) | > 100 | > 100 | > 100 | > 100 | > 100 | > 100 | > 100 | > 100 | > 100 | > 100 | > 100 | > 100 | > 100 | > 100 |  | > 100 |  | > 100 | > 100 |  |
| CC1(C)CC(=O)C2=C(C1)S/C(=C1/SC3=C(S1)C(=O)CC(C)(C)C3)S2 | > 251 |  | > 251 | > 251 | > 251 | > 251 | > 251 | > 251 | > 251 | > 251 | > 251 | > 251 | > 251 | > 251 | > 251 |  | > 251 | > 251 | > 251 |  |
| O=C1c2ccccc2-c2c1c(-c1ccc([N+](=O)[O-])cc1)nc1ccc3ccccc3c21 | > 100 | > 100 | > 100 | > 100 | > 100 | > 100 | > 100 |  | > 100 | > 100 | > 100 | > 100 | > 100 |  |  | > 100 |  |  | > 100 | > 100 |
| CC1(C)OC(C[C@]2(C#N)C[C@H](CCl)OC(C)(C)O2)C[C@@H](C[C@]2(C#N)C[C@H](CCl)OC(C)(C)O2)O1 (stereo partly specified) | > 100 | > 100 | > 100 | > 100 | > 100 | > 100 | > 100 | > 100 | > 100 | > 100 | > 100 | > 100 | > 100 | > 100 | > 100 |  | > 100 | > 100 | > 100 |  |
| CCC1(CCSC(=N)N)C(=O)NC(=O)NC1=O | > 100 | > 100 | > 100 | > 100 | > 100 | > 100 |  | > 100 | > 100 | > 100 | > 100 | > 100 | > 100 | > 100 | > 100 | > 100 | > 100 | > 100 | > 100 |  |
| CCCCCC[C@H]1CC(=O)C2CCCC[C@@]23CC[C@H](CCl)N13 (stereo partly specified) (tested in a mixture with another compound) | > 100 |  | > 100 | > 100 | 90.5 | > 100 | 81.6 |  | > 100 | > 100 | > 100 |  | > 100 | 46.5 | > 100 | 90.6 |  | 79.6 |  |  |
| O=C1CCCC/C1=C1\C(=O)Nc2cc(F)ccc21 | > 100 | > 100 | > 100 | > 100 | > 100 | > 100 | > 100 | > 100 | > 100 | > 100 | > 100 | > 100 | > 100 | > 100 | > 100 |  |  | > 100 | > 100 |  |
